This is an account of results in PubChem BioAssay AID2739 (Broad Institute, 2010).

Inconclusive results are not listed. The source made the active and inactive calls.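 Rule for the calls: active = IC50 no more than tenfold above the highest tested concentration; inconclusive = flat fit with activity between 30% and 70%, or an invalid poor fit; inactive = IC50 beyond tenfold over the top concentration.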

The target of this test is Zinc finger protein mex-5 (Caenorhabditis elegans) (UniProt Q9XUB2). Briefly: blockers of C. elegans MEX-5/TCR-2 RNA interaction – biochemical, fluorescence polarization, MBP-MEX-5, FITC-TCR2 RNA, dose response (AID 2739). The settings on record: MBP-MEX-5 / FITC-TCR2 RNA fluorescence polarization, 1 h.
Zinc finger protein mex-5 (Caenorhabditis elegans), sequence (Q9XUB2 whole entry, looked up): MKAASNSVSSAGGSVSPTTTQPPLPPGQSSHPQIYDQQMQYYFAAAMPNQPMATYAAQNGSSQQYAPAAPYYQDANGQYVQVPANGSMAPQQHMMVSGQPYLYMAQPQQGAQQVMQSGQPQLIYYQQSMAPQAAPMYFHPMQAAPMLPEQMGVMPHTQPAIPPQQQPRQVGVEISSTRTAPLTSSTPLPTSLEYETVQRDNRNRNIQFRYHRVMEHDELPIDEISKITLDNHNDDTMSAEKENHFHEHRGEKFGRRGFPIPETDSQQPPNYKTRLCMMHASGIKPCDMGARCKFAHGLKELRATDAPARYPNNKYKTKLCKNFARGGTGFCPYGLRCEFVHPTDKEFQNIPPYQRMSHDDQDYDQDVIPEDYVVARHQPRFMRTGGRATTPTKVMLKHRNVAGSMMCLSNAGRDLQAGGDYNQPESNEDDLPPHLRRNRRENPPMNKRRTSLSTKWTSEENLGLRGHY
On to `Cc1nc(N=Nc2ccc(O)cc2)n[nH]1`, for which the IC50 is 16100 nM.
For the compound `CCc1ccccc1N1C(=O)/C(=C\c2ccc(N3CCN(C)CC3)o2)C(=O)NC1=S`, the IC50 was > 135000 nM (inactive).
Regarding `Cc1ccc(N2C(=O)NC(=O)/C(=C\c3cc(C)n(-c4ccc(C(=O)O)cc4)c3C)C2=O)cc1`, the IC50 is > 135000 nM (inactive).
On to `CCN(CC)c1ccc(/C=C2\C(=O)NC(=S)N(c3ccc(OC)cc3OC)C2=O)o1`, for which the IC50 is > 135000 nM (inactive).
For the compound `CC1=C(C(=O)OCc2ccccc2)C(c2ccccc2[N+](=O)[O-])NC(=O)N1C` (stereo not drawn), the IC50 is 32400 nM.
`N=c1c(C(=O)NC2CCCCC2)cc2c(=O)n3ccccc3nc2n1Cc1ccc(F)cc1`: the IC50 was > 135000 nM (inactive).
With `COCCCNC(=O)CCC(=O)NNc1nc2ccccc2c2nc(C)nn12`, the IC50 is 1640 nM.
To `Cc1nc2ccccc2c(=O)n1/N=C/c1ccc(O)c(O)c1O` belongs 924 nM.
As for `CCN(CC)c1ccc(/C=C2\C(=O)NC(=S)N(C)C2=O)o1`, the IC50 is > 135000 nM (inactive).
As for `CCOCCCNC(=O)CCC(=O)NNc1nc2ccccc2c2nc(C)nn12`, the IC50 was 2280 nM.
To `NC(CO)C(=O)NNCc1ccc(O)c(O)c1O` (stereo not drawn) belongs > 135000 nM (inactive); to `CCc1ccc(C(=O)NNC(=O)c2ccc(=O)n(C)n2)cc1`, 9250 nM.
Take `COc1ccc(-c2cn[nH]c2-c2ccc(OCC(=O)NN)cc2O)cc1OC`: the IC50 was 1580 nM.
Consider `O=c1c(O)cccc2cc(O)c(O)c(O)c12`, for which the IC50 is 2030 nM.
Consider `COCCNC(=O)CCC(=O)NNc1nc2ccccc2c2nc(C)nn12`, for which the IC50 is 1490 nM.
For `N=c1c(C(=O)NC2CCCCC2)cc2c(=O)n3ccccc3nc2n1Cc1cccnc1`, the IC50 is > 350000 nM (inactive).
As for `Cn1ncc2c(NNC(=O)Cc3ccccc3)ncnc21`, the IC50 was 1310 nM.
Take `CCCCN(C)C(=O)CCC(=O)NNc1nc2ccccc2c2nc(C)nn12`: the half-maximal inhibitory concentration (IC50) was 4170 nM.
The result for `CCOC(=O)C1CCN(C(=O)CCC(=O)NNc2nc3ccccc3c3nc(C)nn23)CC1` reads 2390 nM; that for `Cc1ncc(CO)c(/C=N/NC(=O)c2cc(Br)ccc2O)c1O`, 7890 nM; that for `Cc1cnc(C(=O)NNC(=O)c2ccc(Br)cc2)cn1`, 1080 nM.
The result for `O=C(NNC(=O)c1ccccc1[N+](=O)[O-])c1csc(N2CCOCC2)n1` reads 1310 nM; that for `CCOC(=O)c1cc(CC)sc1/N=C/c1c(O)[nH]c(=S)[nH]c1=O`, > 350000 nM (inactive).
